For series [1], the system named is p-STAT3 (Tyr705) in splenocytes. The series is described as follows: p-STAT3 immunoblotting in splenocytes. The series is classed as cell-based, C57BL/6J mice. The settings on record: 2 hours, 5 and 10 μM (FIG. 3B). The procedure:
Immunoblotting analysis. Murine melanoma B16 cells and splenocytes were used for protein isolation and immunoblotting analysis as described below. B16 cells were seeded at a density of 2×10^6 cells/well in 6-well culture plates and incubated at 37° C., in an atmosphere containing 5% CO2, with the RPMI 1640 medium overnight. Afterward, B16 cells were cultured in the absence or presence of WP1193 (5 μM, 10 μM). After 3.5 hours, the B16 cells were further cultured in the absence or presence of 20 ng/ml of IFN-α for 30 minutes. For the splenocyte preparation, spleens from two 4- to 6-week-old female mice were harvested and disassociated into a single cell suspension. […] The supernatants were collected and quantified for protein content. […]
Autoradiography of the membranes was performed using Amersham ECL Western blotting detection reagents (Amersham Biosciences). The densities of the protein bands compared with the β-actin protein control were measured with the Image J program provided by the NIH.
In this experiment, B16 cells and splenocytes isolated from C57BL/6J mice and were incubated with either the medium, medium supplemented with titrated WP1193, medium supplemented with IFN-α, or medium supplemented with both IFN-α and WP1193. […] Semi-quantitative densitometry was used to determine the relative levels of p-STAT3 to STAT3 and β-actin.
On the technique in general: A western blot detects proteins with antibodies after separation by electrophoresis.

Series [2] has as its system STAT3 in HH, HuT78 and MJ CTCL lines. The series is described as follows: STAT3 tyrosine 705 phosphorylation in CTCL lines. Format: cell-based, human. The settings on record: serum starved 18 hours, stimuli 30 minutes (FIG. 7). The procedure: To determine whether IFN alpha and beta were able to selectively phosphorylate STAT3 in other cell types. Studies were conducted in a range of other biologically relevant cell types. In these experiments, cells were grown in media supplemented with 10% FBS, and then serum starved for 18 hours and exposed to various stimuli for 30 minutes.

In series [3] the test system is STAT3 in HaCaT keratinocytes. The series is described as follows: pSTAT3 level in HaCaT keratinocytes (MSD chemiluminescent detection). Format: cell-based, human. The procedure: Prior to experiments, the DMEM medium was changed to KGM-SFM containing rEGF and bovine pituitary extract for 12 hours, and the cells then exposed to various stimuli for 30 minutes. Cell lysates were extracted in IP lysis buffer were diluted in MSD extraction buffer and 25 uL of the cell lysate containing 10 ug protein was used in the analysis via chemiluminescent detection (MSD Technology). To test for inhibition by WP1220 (WP), cells were pre-incubated with WP1220 prior to the addition of IFN α.

In series [4] the test system is STAT3 and Jak2 phosphorylation in SUP-T1 lymphoma cell line. The series is described as follows: Cytokine signalling in SUP-T1 lymphoma cell line. To be noted: SUP-T1 lymphoma cell line (data not shown). The series is classed as cell-based.
For another series, the system named is melanoma. The settings on record: cited from earlier work.
For series [5] the following is noted: cited from earlier work.

`N#C/C(=C\c1cccc(Br)n1)C(=O)N[C@H](c1ccccc1)C1CC1` [WP1193, (S,E)-3-(6-bromopyridin-2-yl)-2-cyano-N-(cyclopropyl(phenyl)methyl)acrylamide]: the “phosphorylation of p-STAT3” value in series [1] is on record as “inhibits the phosphorylation of p-STAT3”.

Take IFN-α: the “tyrosine phosphorylation of STAT3 (tyrosine 705)” value in series [2] is on record as “selectively stimulates tyrosine phosphorylation of STAT3”. Also, in series [3], the “STAT3 activation in keratinocytes” value was “potently induce STAT3 activation”. In addition, in series [3] (HaCaT cells, stimuli for 30 minutes), the “Relative level of pSAT3” value is “+++++ (+++++=400-500 fold)”. Also, the “pSTAT3 stimulation (Table E8)” value in series [3] (SFM + IFN α, no inhibitor) is reported as “+++++ (+++++=10,000-6,000)”. The “STAT3 and Jak2 phosphorylation” value in series [4] is listed as “potently induce STAT3 but not Jak2 phosphorylation”. For the same molecule, the “reduction in the relative relapse risk” value in the series on melanoma (high-dose type I IFN-α, stage II and III melanoma, adjuvant trials) was 25-33%. For the same molecule, the “melanoma patients with an objective response” value in the series on melanoma (human, in vivo) is reported as 15%. Moreover, in series [5] (after administration of plasmid), the “duration of sustained in vivo expression” value is given as “more than 30 days”. Moreover, the “serum level of IFN-α” value in series [5] (single i.v. hydrodynamic injection of 3 μg pORF plasmid encoding murine IFN-α) is 0.9 ng/mL.

The record behind these values is patent US20130129675A1, “INTERFERON THERAPIES IN COMBINATION WITH BLOCKADE OF STAT3 ACTIVATION” (BOARD OF REGENTS, THE UNIVERSITY OF TEXAS SYSTEM, priority 2009, published 2013).
